Reference: patent publication US6355785B1, “Guanosine-rich oligonucleotide integrase inhibitors” (Aronex Pharmaceuticals, Inc., priority 1993, dated 2002)
Read-outs that look alike come from different tables or passages of the source.

How the values were obtained:
[1] = molecular target: recombinant HIV-1 integrase (wild-type) (Human immunodeficiency virus type 1 group M subtype B, UniProt P12497); assay: HIV-1 integrase 3′-processing and strand transfer assays; assay type: biochemical; parameters: Purified recombinant HIV-1 integrase enzyme (wild-type) was a generous gift from Dr. R. Craigie; purchased gift of Dr. R. Craigie, Laboratory of Molecular Biology, NIDDK (not bought)
[2] = Oligomer folding by circular dichroism; conditions: KCl, 25° C., 20 mM Li3PO4
[3] = 3′-processing, read-out: Anti-Integrase Assay IC50 3′-proc
[4] = strand transfer, read-out: Anti-Integrase Assay IC50 strand tran.

| Compound | IC50 [1, 3] [nM] | IC50 [1, 4] [nM] | increase in potency (3′-processing) with magnesium instead of manganese [1] | IC50 ([1]; HIV-1 integrase, read-out: IC50 3′-processing) [nM] | IC50 ([1]; read-out: Enzyme IC50 3-′process) [nM] | IC50 ([1]; read-out: Enzyme IC50 Stran Trans) [nM] | midpoint of K+ induced folding transition (CD, 264 nm) [2] [mM] |
| --- | --- | --- | --- | --- | --- | --- | --- |
| Cc1cn([C@H]2C[C@H](N=[N+]=[N-])[C@@H](CO)O2)c(=O)[nH]c1=O [AZT, 3′-azido-3′-deoxythymidine] | > 1000 | > 1000 |  |  |  |  |  |
| 5′-gtggtgggtgggtgggt-3′ [T30177] (GTGGTGGGTGGGTGGGT; phosphorothioate termini, further chemistry not given here) [pPT version of parent compound I100-15, 17 mer] | 92 | 46 | four to five-fold | 55 | 49 | 79 |  |
| 5′-gtggtgggtgggtgggt-3′ (GTGGTGGGTGGGTGGGT; phosphorothioate termini, further chemistry not given here) [T30177] |  |  |  |  |  |  | 0.15 |
